Data: ChEMBL document CHEMBL4507291 (2021)

Columns and labels:
[1] = target: 5-hydroxytryptamine receptor 1B (Homo sapiens) (UniProt P28222); test: Inhibition of Serotonin (5-Hydroxytryptamine) 5-HT1B at 10 µM in the Eurofins-Panlabs radioligand binding assay (Eurofins_assay_271200); settings: Compound concentration 10.0 uM
[2] = target: Serine/threonine-protein kinase B-raf (Homo sapiens) (UniProt P15056); test: BRAF Kinase screen; settings: Compound concentration 1.0 uM
[3] = target: Calcium/calmodulin-dependent protein kinase type II subunit beta (Homo sapiens) (UniProt Q13554); test: CAMK2B (CaMKII beta) Kinase screen; settings: Compound concentration 1.0 uM
[4] = target: Casein kinase II subunit alpha (Homo sapiens) (UniProt P68400); test: CSNK2A1 (CK2 alpha 1) Kinase screen; settings: Compound concentration 1.0 uM
[5] = target: T1, Ephrin type-A receptor 1 (Homo sapiens) (UniProt P21709); test: EPHA1 Kinase screen; settings: Compound concentration 1.0 uM
T1 sequence (whole entry): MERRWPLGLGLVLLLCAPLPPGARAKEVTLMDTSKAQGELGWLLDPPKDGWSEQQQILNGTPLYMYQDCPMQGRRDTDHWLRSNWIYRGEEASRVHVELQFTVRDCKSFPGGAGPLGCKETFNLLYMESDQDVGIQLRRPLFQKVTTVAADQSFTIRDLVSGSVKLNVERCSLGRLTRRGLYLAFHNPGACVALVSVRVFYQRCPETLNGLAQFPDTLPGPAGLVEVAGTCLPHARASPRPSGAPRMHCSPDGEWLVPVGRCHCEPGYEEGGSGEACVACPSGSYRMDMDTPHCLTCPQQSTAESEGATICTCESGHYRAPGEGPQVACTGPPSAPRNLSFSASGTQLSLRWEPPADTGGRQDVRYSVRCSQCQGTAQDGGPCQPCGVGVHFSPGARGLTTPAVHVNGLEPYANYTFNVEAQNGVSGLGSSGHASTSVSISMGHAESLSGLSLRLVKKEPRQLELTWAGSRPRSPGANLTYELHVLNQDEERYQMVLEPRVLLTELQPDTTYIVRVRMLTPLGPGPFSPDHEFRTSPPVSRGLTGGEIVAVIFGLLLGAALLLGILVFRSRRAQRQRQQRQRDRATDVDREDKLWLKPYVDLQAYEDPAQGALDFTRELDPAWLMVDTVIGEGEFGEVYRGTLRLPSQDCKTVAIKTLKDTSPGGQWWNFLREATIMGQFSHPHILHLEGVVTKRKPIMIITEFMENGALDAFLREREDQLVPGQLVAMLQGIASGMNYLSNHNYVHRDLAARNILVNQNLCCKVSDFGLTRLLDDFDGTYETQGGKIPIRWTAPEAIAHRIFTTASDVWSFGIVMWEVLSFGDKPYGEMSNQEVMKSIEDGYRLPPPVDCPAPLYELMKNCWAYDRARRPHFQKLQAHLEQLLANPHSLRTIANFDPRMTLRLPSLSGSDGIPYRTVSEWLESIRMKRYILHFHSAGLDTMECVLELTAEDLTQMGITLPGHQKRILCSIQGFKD

[6] = target: Ephrin type-A receptor 4 (Homo sapiens) (UniProt P54764); test: EPHA4 Kinase screen; settings: Compound concentration 1.0 uM
[7] = target: Ephrin type-A receptor 5 (Homo sapiens) (UniProt P54756); test: EPHA5 Kinase screen; settings: Compound concentration 1.0 uM
[8] = target: G protein-coupled receptor kinase 6 (Homo sapiens) (UniProt P43250); test: GRK6 Kinase screen; settings: Compound concentration 1.0 uM
[9] = target: Mitogen-activated protein kinase kinase kinase 8 (Homo sapiens) (UniProt P41279); test: MAP3K8 (COT) Kinase screen; settings: Compound concentration 1.0 uM
[10] = target: Maternal embryonic leucine zipper kinase (Homo sapiens) (UniProt Q14680); test: MELK Kinase screen; settings: Compound concentration 1.0 uM
[11] = target: T2, Tyrosine-protein kinase Mer (Homo sapiens) (UniProt Q12866); test: MERTK (cMER) Kinase screen; settings: Compound concentration 1.0 uM
T2 sequence (whole entry): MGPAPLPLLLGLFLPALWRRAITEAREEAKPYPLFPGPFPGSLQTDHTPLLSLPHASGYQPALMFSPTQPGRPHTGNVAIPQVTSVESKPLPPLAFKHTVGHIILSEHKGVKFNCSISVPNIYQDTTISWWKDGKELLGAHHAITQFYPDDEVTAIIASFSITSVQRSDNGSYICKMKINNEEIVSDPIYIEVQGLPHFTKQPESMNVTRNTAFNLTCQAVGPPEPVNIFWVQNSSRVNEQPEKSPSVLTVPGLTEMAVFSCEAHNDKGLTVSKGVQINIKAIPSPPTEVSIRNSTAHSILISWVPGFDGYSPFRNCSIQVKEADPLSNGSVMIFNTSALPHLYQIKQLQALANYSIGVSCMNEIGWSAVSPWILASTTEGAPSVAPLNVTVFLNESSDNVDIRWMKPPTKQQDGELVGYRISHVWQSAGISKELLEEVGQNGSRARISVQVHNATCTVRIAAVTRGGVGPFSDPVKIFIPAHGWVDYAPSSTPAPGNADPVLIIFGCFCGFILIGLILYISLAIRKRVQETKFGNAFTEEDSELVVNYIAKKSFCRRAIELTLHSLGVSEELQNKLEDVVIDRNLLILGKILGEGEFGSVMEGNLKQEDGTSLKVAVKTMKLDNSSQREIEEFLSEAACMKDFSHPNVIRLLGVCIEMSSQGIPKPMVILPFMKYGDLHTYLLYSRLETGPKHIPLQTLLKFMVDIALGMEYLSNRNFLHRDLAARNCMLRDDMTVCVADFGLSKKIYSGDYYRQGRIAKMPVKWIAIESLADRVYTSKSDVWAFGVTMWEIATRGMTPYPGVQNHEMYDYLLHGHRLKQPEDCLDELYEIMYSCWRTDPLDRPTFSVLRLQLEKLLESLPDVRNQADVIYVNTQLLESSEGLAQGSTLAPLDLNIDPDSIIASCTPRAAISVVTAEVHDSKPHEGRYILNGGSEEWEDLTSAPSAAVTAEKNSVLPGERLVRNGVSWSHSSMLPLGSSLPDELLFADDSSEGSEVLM

[12] = target: Phosphatidylinositol 4-phosphate 3-kinase C2 domain-containing subunit alpha (Homo sapiens) (UniProt O00443); test: PIK3C2A (PI3K-C2 alpha) Kinase screen; settings: Compound concentration 1.0 uM
[13] = target: Ribosomal protein S6 kinase alpha-2 (Homo sapiens) (UniProt Q15349); test: RPS6KA2 (RSK3) Kinase screen; settings: Compound concentration 1.0 uM
[14] = target: Sphingosine kinase 2 (Homo sapiens) (UniProt Q9NRA0); test: SPHK2 Kinase screen; settings: Compound concentration 1.0 uM
[15] = target: Melanin-concentrating hormone receptor 1 (Homo sapiens) (UniProt Q99705); test: Melanin-Concentrating Hormone MCH1 (SLC1) Eurofins-Panlabs radioligand binding assay; parameters: ligand concentration 0.05 nM; settings: Compound concentration 10.0 uM
[16] = target: Beta-1 adrenergic receptor (Homo sapiens) (UniProt P08588); settings: Compound concentration 10.0 uM

Measured: inhibition

Melanin-concentrating hormone receptor 1 (Homo sapiens), sequence (Q99705 whole entry): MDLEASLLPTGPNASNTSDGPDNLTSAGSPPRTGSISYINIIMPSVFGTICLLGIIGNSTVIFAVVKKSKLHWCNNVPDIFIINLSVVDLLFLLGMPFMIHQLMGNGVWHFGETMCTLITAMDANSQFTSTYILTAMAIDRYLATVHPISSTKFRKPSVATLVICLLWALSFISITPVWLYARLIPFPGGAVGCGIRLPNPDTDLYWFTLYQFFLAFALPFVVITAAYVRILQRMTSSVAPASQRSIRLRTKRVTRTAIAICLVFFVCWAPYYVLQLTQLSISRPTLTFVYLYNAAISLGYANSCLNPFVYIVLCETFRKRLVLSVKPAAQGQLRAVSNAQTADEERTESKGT
Ephrin type-A receptor 4 (Homo sapiens), sequence (P54764 whole entry): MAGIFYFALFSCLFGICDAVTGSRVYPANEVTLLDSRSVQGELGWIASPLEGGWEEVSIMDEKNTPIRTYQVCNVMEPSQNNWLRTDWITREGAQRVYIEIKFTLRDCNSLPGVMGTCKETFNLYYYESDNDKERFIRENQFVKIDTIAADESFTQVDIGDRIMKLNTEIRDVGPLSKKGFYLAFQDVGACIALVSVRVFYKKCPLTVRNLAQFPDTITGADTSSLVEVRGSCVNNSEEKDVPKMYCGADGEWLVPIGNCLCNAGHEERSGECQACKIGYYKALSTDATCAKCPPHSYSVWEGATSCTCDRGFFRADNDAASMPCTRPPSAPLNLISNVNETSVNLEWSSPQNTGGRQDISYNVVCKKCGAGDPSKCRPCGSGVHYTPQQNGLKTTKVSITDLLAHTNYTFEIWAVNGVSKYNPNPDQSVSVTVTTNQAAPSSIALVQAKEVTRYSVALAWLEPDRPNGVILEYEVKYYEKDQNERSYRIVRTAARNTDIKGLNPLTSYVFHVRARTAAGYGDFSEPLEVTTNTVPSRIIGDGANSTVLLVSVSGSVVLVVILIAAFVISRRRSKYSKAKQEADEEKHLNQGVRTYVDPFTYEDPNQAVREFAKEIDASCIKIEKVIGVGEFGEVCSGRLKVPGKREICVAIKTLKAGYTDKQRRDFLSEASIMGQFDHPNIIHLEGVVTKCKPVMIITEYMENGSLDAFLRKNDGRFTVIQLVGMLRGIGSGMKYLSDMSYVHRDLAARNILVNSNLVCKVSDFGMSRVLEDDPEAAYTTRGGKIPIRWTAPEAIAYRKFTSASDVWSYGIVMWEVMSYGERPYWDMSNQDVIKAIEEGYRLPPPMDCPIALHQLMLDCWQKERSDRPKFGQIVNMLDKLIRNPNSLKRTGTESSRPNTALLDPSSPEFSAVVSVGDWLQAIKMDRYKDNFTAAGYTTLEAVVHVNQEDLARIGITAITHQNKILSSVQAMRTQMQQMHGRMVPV
5-hydroxytryptamine receptor 1B (Homo sapiens), sequence (P28222 whole entry): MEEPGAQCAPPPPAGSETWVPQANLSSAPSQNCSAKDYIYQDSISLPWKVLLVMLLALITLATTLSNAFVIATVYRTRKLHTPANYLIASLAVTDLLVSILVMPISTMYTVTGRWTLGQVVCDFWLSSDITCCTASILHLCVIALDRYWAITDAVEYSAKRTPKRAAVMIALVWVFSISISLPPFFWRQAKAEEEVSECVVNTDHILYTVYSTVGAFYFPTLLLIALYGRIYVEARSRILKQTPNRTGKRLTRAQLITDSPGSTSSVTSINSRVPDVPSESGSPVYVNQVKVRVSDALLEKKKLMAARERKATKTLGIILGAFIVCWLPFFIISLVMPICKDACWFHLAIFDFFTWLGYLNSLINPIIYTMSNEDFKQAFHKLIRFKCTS
Ephrin type-A receptor 5 (Homo sapiens), sequence (P54756 whole entry): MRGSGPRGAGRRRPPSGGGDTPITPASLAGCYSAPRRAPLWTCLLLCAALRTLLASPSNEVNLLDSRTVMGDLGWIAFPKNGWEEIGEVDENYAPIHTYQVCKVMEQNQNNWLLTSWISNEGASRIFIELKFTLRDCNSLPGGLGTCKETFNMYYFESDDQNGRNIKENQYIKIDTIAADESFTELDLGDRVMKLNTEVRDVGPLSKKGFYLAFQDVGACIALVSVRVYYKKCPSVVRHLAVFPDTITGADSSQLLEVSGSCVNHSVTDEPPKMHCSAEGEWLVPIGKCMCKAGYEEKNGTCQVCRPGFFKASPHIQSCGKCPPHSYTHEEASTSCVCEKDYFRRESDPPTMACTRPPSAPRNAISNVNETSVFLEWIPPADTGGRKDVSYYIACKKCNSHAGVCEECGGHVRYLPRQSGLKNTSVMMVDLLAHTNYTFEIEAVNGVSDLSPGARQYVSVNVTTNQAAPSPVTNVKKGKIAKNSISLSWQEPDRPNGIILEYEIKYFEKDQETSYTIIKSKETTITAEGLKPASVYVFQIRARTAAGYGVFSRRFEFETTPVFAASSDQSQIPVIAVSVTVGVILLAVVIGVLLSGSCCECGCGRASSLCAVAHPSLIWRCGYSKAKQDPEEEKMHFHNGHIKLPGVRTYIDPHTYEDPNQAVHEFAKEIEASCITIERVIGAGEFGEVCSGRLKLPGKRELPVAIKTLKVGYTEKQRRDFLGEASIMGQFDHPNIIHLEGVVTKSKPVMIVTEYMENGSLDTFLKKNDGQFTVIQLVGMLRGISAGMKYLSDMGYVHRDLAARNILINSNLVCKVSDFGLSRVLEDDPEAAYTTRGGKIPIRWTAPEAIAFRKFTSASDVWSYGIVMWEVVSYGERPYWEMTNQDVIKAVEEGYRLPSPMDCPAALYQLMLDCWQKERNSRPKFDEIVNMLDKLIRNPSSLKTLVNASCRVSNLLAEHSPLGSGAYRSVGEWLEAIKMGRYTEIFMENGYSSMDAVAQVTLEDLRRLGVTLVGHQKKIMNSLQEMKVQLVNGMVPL
Mitogen-activated protein kinase kinase kinase 8 (Homo sapiens), sequence (P41279 whole entry): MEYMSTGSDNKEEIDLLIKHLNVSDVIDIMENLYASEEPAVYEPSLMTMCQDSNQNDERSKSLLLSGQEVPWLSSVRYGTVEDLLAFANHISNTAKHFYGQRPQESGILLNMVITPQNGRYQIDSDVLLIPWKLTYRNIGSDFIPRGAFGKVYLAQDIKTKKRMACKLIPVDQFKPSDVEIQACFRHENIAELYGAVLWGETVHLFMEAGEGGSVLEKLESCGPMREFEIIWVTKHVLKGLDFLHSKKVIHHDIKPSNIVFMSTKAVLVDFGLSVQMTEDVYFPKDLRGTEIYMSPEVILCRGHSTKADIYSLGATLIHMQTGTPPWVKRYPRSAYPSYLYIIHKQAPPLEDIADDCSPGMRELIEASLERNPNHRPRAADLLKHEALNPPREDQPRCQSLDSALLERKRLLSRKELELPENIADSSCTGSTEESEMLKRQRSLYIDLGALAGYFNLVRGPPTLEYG
Ribosomal protein S6 kinase alpha-2 (Homo sapiens), sequence (Q15349 whole entry): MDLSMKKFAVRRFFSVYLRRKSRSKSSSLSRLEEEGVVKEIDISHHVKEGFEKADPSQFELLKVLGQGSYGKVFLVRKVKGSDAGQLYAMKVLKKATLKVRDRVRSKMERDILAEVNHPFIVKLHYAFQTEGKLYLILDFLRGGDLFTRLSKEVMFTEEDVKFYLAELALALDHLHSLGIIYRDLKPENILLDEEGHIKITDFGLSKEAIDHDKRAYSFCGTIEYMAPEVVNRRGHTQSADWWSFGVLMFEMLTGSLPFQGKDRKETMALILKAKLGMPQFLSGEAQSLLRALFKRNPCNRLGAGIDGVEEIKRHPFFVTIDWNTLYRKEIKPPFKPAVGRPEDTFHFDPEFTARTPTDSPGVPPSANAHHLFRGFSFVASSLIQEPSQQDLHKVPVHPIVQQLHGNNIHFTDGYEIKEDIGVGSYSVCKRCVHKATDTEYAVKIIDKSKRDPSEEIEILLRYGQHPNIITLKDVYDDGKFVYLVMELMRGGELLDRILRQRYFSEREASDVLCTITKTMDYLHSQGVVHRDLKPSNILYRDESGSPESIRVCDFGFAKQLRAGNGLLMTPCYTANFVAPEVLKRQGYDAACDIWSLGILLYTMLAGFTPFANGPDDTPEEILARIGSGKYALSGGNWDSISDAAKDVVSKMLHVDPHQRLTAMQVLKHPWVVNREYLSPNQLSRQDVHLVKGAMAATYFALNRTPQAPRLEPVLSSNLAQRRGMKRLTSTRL
Beta-1 adrenergic receptor (Homo sapiens), sequence (P08588 whole entry, looked up): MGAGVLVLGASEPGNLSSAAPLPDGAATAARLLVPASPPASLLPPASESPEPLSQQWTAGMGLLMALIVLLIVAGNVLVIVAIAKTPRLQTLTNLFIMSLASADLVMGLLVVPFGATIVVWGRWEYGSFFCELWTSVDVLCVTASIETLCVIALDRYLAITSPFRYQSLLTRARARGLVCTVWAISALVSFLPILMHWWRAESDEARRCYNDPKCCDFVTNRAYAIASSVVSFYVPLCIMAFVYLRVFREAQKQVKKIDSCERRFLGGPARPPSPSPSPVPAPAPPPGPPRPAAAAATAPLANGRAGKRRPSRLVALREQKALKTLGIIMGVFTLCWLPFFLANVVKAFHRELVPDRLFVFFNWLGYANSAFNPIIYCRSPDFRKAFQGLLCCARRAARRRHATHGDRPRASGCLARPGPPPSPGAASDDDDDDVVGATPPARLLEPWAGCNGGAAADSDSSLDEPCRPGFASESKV
G protein-coupled receptor kinase 6 (Homo sapiens), sequence (P43250 whole entry, looked up): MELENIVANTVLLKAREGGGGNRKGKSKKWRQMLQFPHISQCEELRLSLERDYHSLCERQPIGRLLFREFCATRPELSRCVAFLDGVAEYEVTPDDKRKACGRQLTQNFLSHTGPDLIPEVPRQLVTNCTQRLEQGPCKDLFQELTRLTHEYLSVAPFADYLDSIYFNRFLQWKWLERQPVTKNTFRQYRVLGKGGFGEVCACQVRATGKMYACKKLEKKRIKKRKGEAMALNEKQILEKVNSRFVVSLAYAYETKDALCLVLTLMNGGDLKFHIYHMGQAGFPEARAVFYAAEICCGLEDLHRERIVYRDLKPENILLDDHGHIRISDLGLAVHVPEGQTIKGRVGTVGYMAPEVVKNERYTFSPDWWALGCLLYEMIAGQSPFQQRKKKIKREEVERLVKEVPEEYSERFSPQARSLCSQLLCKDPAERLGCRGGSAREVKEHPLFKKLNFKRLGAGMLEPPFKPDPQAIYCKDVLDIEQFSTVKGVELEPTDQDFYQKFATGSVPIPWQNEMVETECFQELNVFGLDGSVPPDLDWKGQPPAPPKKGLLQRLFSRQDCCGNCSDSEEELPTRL

C[C@@H]1CN(c2cc(-c3n[nH]c4ccc(OC5(C)CC5)cc34)ncn2)C[C@H](C)O1 [MLi-2]
inactive: [1] 0% | [2] 27.1% | [3] 12.6% | [4] 3.5% | [5] 7.77% | [6] 4.82% | [7] 5.05% | [8] 6.63% | [9] 16.3% | [10] 5.44% | [11] 4.76% | [12] -0.741% | [13] 7.53% | [14] -0.739% | [15] 1% | [16] -7%
